Assay results: patent publication EP0260127A2, “Xanthine derivatives, their preparation and pharmaceutical compositions containing them” (BEECHAM - WUELFING GmbH & Co. KG, priority 1986, dated 1988)
Marks after values point to notes of the source that are not given here.

Tests used:
[1] = biological target: cyclic AMP phosphodiesterase; assay: Inhibition of cyclic AMP phosphodiesterase (Dixon plot); format: biochemical; conditions: homogenates of rat skeletal muscle; 0.31 µM cyclic AMP as substrate; estimated from Dixon plot; read-out: Apparent Ki value
Procedure: 4. Inhibition of cyclic AMP phosphodiesterase.
The activity of cyclic AMP phosphodiesterase in homogenates of rat skeletal muscle was measured in the presence of various concentrations of compounds of formula (I) using 0.31 µM cyclic AMP as substrate. The reciprocal of the reaction rate was plotted on the y axis against the concentration of each compound on the x axis (Dixon plot). The apparent Ki value was estimated by extrapolating the steeper linear portion of the Dixon plot to the x axis and obtaining the negative intercept on the x axis.

[2] = system: Mongolian gerbils; assay: Gerbil ischaemic deficit passive avoidance test (recall latency following transient forebrain ischaemia); format: in vivo; conditions: 3mg/kg p.o., seven administrations; gerbils after 5min bilateral carotid artery ligation; ischaemic controls 14, sham-ligated controls 33
Procedure: 2. The Gerbil Ischaemic Deficit Passive Avoidance Test.
Mongolian gerbils were conditioned to avoid entering a dark compartment by means of a footshock (maximally 50V, 2s duration) received when entering from the light section of a two compartment box. Recollection of the footshock was examined 24h later by replacing the gerbils in the two compartment box and measuring the recall latency, the time taken to re-enter the dark compartment.
Effect of test compound on recall latency in the gerbil following transient forebrain ischaemia.
A learning or memory deficit was induced in the gerbils by a transient (5min) bilateral carotid artery ligation, performed 24h prior to conditioning, under light hexobarbital anaesthesia.
Compounds, being examined for an effect on learning or memory in gerbils which had undergone carotid occlusion, were administered seven times during the experiment. The initial administration was during the period of forebrain ischaemia, the third and seventh administrations were 10min prior to conditioning and recall testing, respectively, and the remainder were given at intermediate time points.
A long recall latency indicates good information acquisition or retrival.

[3] = system: rat ischaemic gastrocnemius muscle; assay: Effect on oxygen tension (pO2) of rat ischaemic gastrocnemius muscle; format: in vivo; conditions: ischaemic hindlimb, femoral artery ligated 2-4 days previously

Row | SMILES | Ki [1] | Percentage of animals with recall latencies >60s [2] | CHANGE in pO2 (Torr) (mean ± SEM) ([3]; 1.0 mg/kg i.v., n 8) | CHANGE in pO2 (Torr) (mean ± SEM) ([3]; 5.0 mg/kg i.v., n 4)
1 | CCCCn1c(=O)c2c(ncn2CC(C)=O)n(CCC(C)O)c1=O (centres unmarked) [Example E9, 1-n-Butyl-3-(3-hydroxybutyl)-7-(2-oxopropyl)xanthine] | 13 µM |  |  | 
2 | CCCCn1c(=O)n(CCC(C)O)c(=O)c2c1ncn2CC(C)=O (centres unmarked) [Example E7, 1-(3-Hydroxybutyl)-3-n-butyl-7-(2-oxopropyl)xanthine] | 13 µM |  |  | 
3 | CCCCn1c(=O)n(CCC(C)=O)c(=O)c2c1ncn2CC(C)O (centres unmarked) [Example E8, 1-(3-Oxobutyl)-3-n-butyl-7-(2-hydroxypropyl) xanthine] | 160 µM |  |  | 
4 | CC(=O)Cn1cnc2c1c(=O)n(CCC(C)O)c(=O)n2CCC(C)O (centres unmarked) [Example E11, 1,3-bis-(3-Hydroxybutyl)-7-(2-oxopropyl)xanthine] | 81 µM |  |  | 

Second part, led by results:

Row | Ki [1] | SMILES | Percentage of animals with recall latencies >60s [2] | CHANGE in pO2 (Torr) (mean ± SEM) ([3]; 1.0 mg/kg i.v., n 8) | CHANGE in pO2 (Torr) (mean ± SEM) ([3]; 5.0 mg/kg i.v., n 4)
5 | 815 µM | CC(O)CCn1c(=O)c2c(ncn2CC(C)O)n(CCC(C)O)c1=O (centres unmarked) [Example E14, 1,3-bis-(3-Hydroxybutyl)-7-(2-hydroxypropyl)xanthine] |  |  | 
6 | 94 µM | CCCCn1c(=O)c2c(ncn2CC(C)O)n(CCC(C)O)c1=O (centres unmarked) [Example E6, 1-n-Butyl-3-(3-hydroxybutyl)-7-(2-hydroxypropyl)xanthine] | 33* | 2.2 ± 0.6 Torr | 
7 | 128 µM | CCCCn1c(=O)n(CCC(C)O)c(=O)c2c1ncn2CC(C)O (centres unmarked) [Example E5, 1-(3-Hydroxybutyl)-3-n-butyl-7-(2-hydroxypropyl) xanthine] | 32* |  | 2.3 ± 1.6 Torr
